From the NIST ThermoML archive (doi:10.1021/je700260f)
Values joined by “and” are separate entries in the source; they are usually repeats but may differ in a detail not shown here. Equal values may be shown once.

Conditions: Liquid, Vibrating tube method

FC(C(F)(F)F)C(F)(F)F [1,1,1,2,3,3,3-heptafluoropropane]
Conditions	mass density
283.14 K, 31470 kPa	1570.9 kg/m3
283.14 K, 31923 kPa	1572.2 kg/m3
283.14 K, 31954 kPa	1572.2 kg/m3
283.14 K, 31990 kPa	1572.3 kg/m3
283.14 K, 32053 kPa	1572.5 kg/m3
283.14 K, 32196 kPa	1572.9 kg/m3
283.14 K, 32239 kPa	1573 kg/m3
283.14 K, 32276 kPa	1573 kg/m3
283.14 K, 32317 kPa	1573.1 kg/m3
283.14 K, 32360 kPa	1573.2 kg/m3
283.14 K, 32439 kPa	1573.5 kg/m3
283.14 K, 32476 kPa	1573.6 kg/m3
283.14 K, 32513 kPa	1573.7 kg/m3
283.14 K, 32546 kPa	1573.8 kg/m3
283.14 K, 32585 kPa	1573.8 kg/m3
283.14 K, 32618 kPa	1574 kg/m3
283.14 K, 32651 kPa	1574 kg/m3
283.14 K, 32687 kPa	1574.2 kg/m3
283.14 K, 32724 kPa	1574.4 kg/m3
283.14 K, 32761 kPa	1574.4 kg/m3
283.14 K, 32793 kPa	1574.4 kg/m3
283.14 K, 32841 kPa	1574.7 kg/m3
283.14 K, 32986 kPa	1574.9 kg/m3
283.14 K, 33019 kPa	1575.2 kg/m3
283.14 K, 33051 kPa	1575.2 kg/m3
283.14 K, 33098 kPa	1575.1 kg/m3
283.14 K, 33128 kPa	1575.4 kg/m3
283.14 K, 33158 kPa	1575.5 kg/m3
283.14 K, 33205 kPa	1575.6 kg/m3
283.14 K, 33237 kPa	1575.7 kg/m3
283.14 K, 33312 kPa	1575.9 kg/m3
283.15 K, 461 kPa	1449.6 kg/m3 and 1449.7 kg/m3 and 1449.5 kg/m3
283.15 K, 462 kPa	1449.6 kg/m3 and 1449.5 kg/m3 and 1449.7 kg/m3
283.15 K, 463 kPa	1449.6 kg/m3
283.15 K, 465 kPa	1449.6 kg/m3
283.15 K, 485 kPa	1449.7 kg/m3
283.15 K, 513 kPa	1449.9 kg/m3
283.15 K, 538 kPa	1450.1 kg/m3
283.15 K, 571 kPa	1450.2 kg/m3
283.15 K, 601 kPa	1450.5 kg/m3
283.15 K, 635 kPa	1450.8 kg/m3
283.15 K, 666 kPa	1450.9 kg/m3
283.15 K, 696 kPa	1451.1 kg/m3
283.15 K, 723 kPa	1451.2 kg/m3
283.15 K, 745 kPa	1451.3 kg/m3
283.15 K, 785 kPa	1451.6 kg/m3
283.15 K, 825 kPa	1451.8 kg/m3
283.15 K, 870 kPa	1452 kg/m3
283.15 K, 902 kPa	1452.3 kg/m3
283.15 K, 2647 kPa	1462.4 kg/m3
283.15 K, 2695 kPa	1462.6 kg/m3
283.15 K, 2733 kPa	1462.7 kg/m3
283.15 K, 2772 kPa	1462.9 kg/m3
283.15 K, 2817 kPa	1463.3 kg/m3
283.15 K, 2855 kPa	1463.4 kg/m3
283.15 K, 2910 kPa	1463.7 kg/m3
283.15 K, 2943 kPa	1464 kg/m3
283.15 K, 2982 kPa	1464.2 kg/m3
283.15 K, 3012 kPa	1464.3 kg/m3
283.15 K, 3043 kPa	1464.5 kg/m3
283.15 K, 3065 kPa	1464.6 kg/m3
283.15 K, 3097 kPa	1464.7 kg/m3
283.15 K, 3117 kPa	1464.9 kg/m3
283.15 K, 3653 kPa	1467.8 kg/m3
283.15 K, 3681 kPa	1467.9 kg/m3
283.15 K, 3713 kPa	1468.1 kg/m3
283.15 K, 3737 kPa	1468.2 kg/m3
283.15 K, 3764 kPa	1468.5 kg/m3
283.15 K, 3789 kPa	1468.4 kg/m3
283.15 K, 3818 kPa	1468.6 kg/m3
283.15 K, 3851 kPa	1468.8 kg/m3
283.15 K, 3880 kPa	1469 kg/m3
283.15 K, 3906 kPa	1469.1 kg/m3
283.15 K, 3935 kPa	1469.3 kg/m3
283.15 K, 3961 kPa	1469.4 kg/m3
283.15 K, 4806 kPa	1473.8 kg/m3
283.15 K, 4895 kPa	1474.2 kg/m3
283.15 K, 4922 kPa	1474.4 kg/m3
283.15 K, 4945 kPa	1474.4 kg/m3
283.15 K, 5000 kPa	1474.7 kg/m3
283.15 K, 5032 kPa	1474.9 kg/m3
283.15 K, 5060 kPa	1475.1 kg/m3
283.15 K, 5088 kPa	1475.3 kg/m3
283.15 K, 5115 kPa	1475.2 kg/m3
283.15 K, 5147 kPa	1475.5 kg/m3
283.15 K, 5176 kPa	1475.7 kg/m3
283.15 K, 5204 kPa	1475.8 kg/m3
283.15 K, 5232 kPa	1476 kg/m3
283.15 K, 5260 kPa	1476.1 kg/m3
283.15 K, 5284 kPa	1476.2 kg/m3
283.15 K, 5323 kPa	1476.4 kg/m3
283.15 K, 5350 kPa	1476.5 kg/m3
283.15 K, 5373 kPa	1476.8 kg/m3
283.15 K, 5402 kPa	1476.8 kg/m3
283.15 K, 5425 kPa	1477 kg/m3
283.15 K, 5522 kPa	1477.4 kg/m3
283.15 K, 5563 kPa	1477.6 kg/m3
283.15 K, 5594 kPa	1477.8 kg/m3
283.15 K, 5634 kPa	1478 kg/m3
283.15 K, 5666 kPa	1478.1 kg/m3
283.15 K, 6204 kPa	1480.7 kg/m3
283.15 K, 6271 kPa	1480.9 kg/m3
283.15 K, 6297 kPa	1481.2 kg/m3
283.15 K, 6322 kPa	1481.4 kg/m3
283.15 K, 6344 kPa	1481.4 kg/m3
283.15 K, 6375 kPa	1481.6 kg/m3
283.15 K, 6406 kPa	1481.7 kg/m3
283.15 K, 6431 kPa	1481.9 kg/m3
283.15 K, 6461 kPa	1481.9 kg/m3
283.15 K, 6486 kPa	1482.3 kg/m3
283.15 K, 6517 kPa	1482.3 kg/m3
283.15 K, 6547 kPa	1482.4 kg/m3
283.15 K, 6577 kPa	1482.5 kg/m3
283.15 K, 6611 kPa	1482.7 kg/m3
283.15 K, 6635 kPa	1482.9 kg/m3
283.15 K, 6659 kPa	1483.1 kg/m3
283.15 K, 6686 kPa	1483.1 kg/m3
283.15 K, 6713 kPa	1483.1 kg/m3
283.15 K, 6738 kPa	1483.2 kg/m3
283.15 K, 6762 kPa	1483.3 kg/m3
283.15 K, 6790 kPa	1483.5 kg/m3
283.15 K, 6822 kPa	1483.7 kg/m3
283.15 K, 6853 kPa	1483.9 kg/m3
283.15 K, 6877 kPa	1484 kg/m3
283.15 K, 6913 kPa	1484.2 kg/m3
283.15 K, 6937 kPa	1484.3 kg/m3
283.15 K, 6998 kPa	1484.5 kg/m3
283.15 K, 7022 kPa	1484.7 kg/m3
283.15 K, 7050 kPa	1484.8 kg/m3
283.15 K, 7079 kPa	1485 kg/m3
283.15 K, 7107 kPa	1485 kg/m3
283.15 K, 7134 kPa	1485.2 kg/m3
283.15 K, 7154 kPa	1485.2 kg/m3
283.15 K, 7185 kPa	1485.5 kg/m3
283.15 K, 7209 kPa	1485.6 kg/m3
283.15 K, 7237 kPa	1485.7 kg/m3
283.15 K, 7266 kPa	1485.9 kg/m3
283.15 K, 7293 kPa	1485.9 kg/m3
283.15 K, 7325 kPa	1486.1 kg/m3
283.15 K, 7349 kPa	1486.2 kg/m3
283.15 K, 7385 kPa	1486.3 kg/m3
283.15 K, 7415 kPa	1486.5 kg/m3
283.15 K, 7443 kPa	1486.7 kg/m3
283.15 K, 8348 kPa	1490.8 kg/m3
283.15 K, 8383 kPa	1491.1 kg/m3
283.15 K, 8413 kPa	1491.1 kg/m3
283.15 K, 8453 kPa	1491.2 kg/m3
283.15 K, 8481 kPa	1491.5 kg/m3
283.15 K, 8520 kPa	1491.6 kg/m3
283.15 K, 8545 kPa	1491.6 kg/m3
283.15 K, 8576 kPa	1491.9 kg/m3
283.15 K, 8606 kPa	1492 kg/m3
283.15 K, 8641 kPa	1492.2 kg/m3
283.15 K, 8667 kPa	1492.3 kg/m3
283.15 K, 8702 kPa	1492.4 kg/m3
283.15 K, 8724 kPa	1492.5 kg/m3
283.15 K, 8755 kPa	1492.6 kg/m3
283.15 K, 8782 kPa	1492.8 kg/m3
283.15 K, 8808 kPa	1492.9 kg/m3
283.15 K, 8841 kPa	1492.9 kg/m3
283.15 K, 8868 kPa	1493.1 kg/m3
283.15 K, 8904 kPa	1493.4 kg/m3
283.15 K, 8936 kPa	1493.4 kg/m3
283.15 K, 8973 kPa	1493.5 kg/m3
283.15 K, 9000 kPa	1493.8 kg/m3
283.15 K, 9041 kPa	1493.9 kg/m3
283.15 K, 9068 kPa	1494 kg/m3
283.15 K, 9104 kPa	1494.2 kg/m3
283.15 K, 9140 kPa	1494.3 kg/m3
283.15 K, 9167 kPa	1494.5 kg/m3
283.15 K, 9194 kPa	1494.6 kg/m3
283.15 K, 9230 kPa	1494.7 kg/m3
283.15 K, 9266 kPa	1495 kg/m3
283.15 K, 9294 kPa	1495.1 kg/m3
283.15 K, 9330 kPa	1495.1 kg/m3
283.15 K, 9361 kPa	1495.3 kg/m3
283.15 K, 9403 kPa	1495.5 kg/m3
283.15 K, 9441 kPa	1495.7 kg/m3
283.15 K, 9483 kPa	1495.8 kg/m3
283.15 K, 9641 kPa	1496.6 kg/m3
283.15 K, 9679 kPa	1496.6 kg/m3
283.15 K, 9707 kPa	1496.9 kg/m3
283.15 K, 9754 kPa	1497 kg/m3
283.15 K, 9777 kPa	1497.2 kg/m3
283.15 K, 9809 kPa	1497.3 kg/m3
283.15 K, 9842 kPa	1497.5 kg/m3
283.15 K, 9875 kPa	1497.5 kg/m3
283.15 K, 9912 kPa	1497.8 kg/m3
283.15 K, 9941 kPa	1497.8 kg/m3
283.15 K, 9979 kPa	1498 kg/m3
283.15 K, 10009 kPa	1498.1 kg/m3
283.15 K, 10055 kPa	1498.3 kg/m3
283.15 K, 10080 kPa	1498.4 kg/m3
283.15 K, 10109 kPa	1498.5 kg/m3
283.15 K, 10139 kPa	1498.7 kg/m3
283.15 K, 10164 kPa	1498.8 kg/m3
283.15 K, 10198 kPa	1499 kg/m3
283.15 K, 10233 kPa	1499.2 kg/m3
283.15 K, 10254 kPa	1499.2 kg/m3
283.15 K, 10289 kPa	1499.3 kg/m3
283.15 K, 10314 kPa	1499.5 kg/m3
283.15 K, 10348 kPa	1499.7 kg/m3
283.15 K, 10370 kPa	1499.7 kg/m3
283.15 K, 10399 kPa	1499.7 kg/m3
283.15 K, 10424 kPa	1500.1 kg/m3
